Results from PubChem BioAssay (NCI).
Where “and” joins values, the source holds several entries; their conditions need not be identical. Identical values can stand only once.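 Protocol summary: plate cells (96-well), add compound at 5 concentrations, incubate 48 h, interpolate endpoints linearly. At the GI50, growth is halved. TGI is the concentration that stops growth completely.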

Tests used:
Experiment in all cases: NCI tumour cell line growth inhibition, 48 h
HCC-2998 colon = tested on: HCC-2998 colon
HCT-116 colon = tested on: HCT-116 colon
KM12 colon = tested on: KM12 colon
M14 melanoma = tested on: M14 melanoma
MCF7 breast = tested on: MCF7 breast
MDA-MB-231 breast = tested on: MDA-MB-231 breast
SF-539 CNS = tested on: SF-539 CNS
SK-MEL-2 melanoma = tested on: SK-MEL-2 melanoma
SNB-19 CNS = tested on: SNB-19 CNS
SNB-75 CNS = tested on: SNB-75 CNS

| SMILES | GI50 (HCC-2998 colon) | TGI (HCC-2998 colon) | GI50 (HCT-116 colon) | TGI (HCT-116 colon) | GI50 (KM12 colon) | TGI (KM12 colon) | GI50 (M14 melanoma) | TGI (M14 melanoma) | GI50 (MCF7 breast) | TGI (MCF7 breast) | GI50 (MDA-MB-231 breast) | TGI (MDA-MB-231 breast) | GI50 (SF-539 CNS) | TGI (SF-539 CNS) | GI50 (SK-MEL-2 melanoma) | TGI (SK-MEL-2 melanoma) | GI50 (SNB-19 CNS) | TGI (SNB-19 CNS) | GI50 (SNB-75 CNS) | TGI (SNB-75 CNS) |
| --- | --- | --- | --- | --- | --- | --- | --- | --- | --- | --- | --- | --- | --- | --- | --- | --- | --- | --- | --- | --- |
| O=C1NC(=O)C(=C/C=C/c2ccccc2)C(=O)N1 | 2.2 µM | 4.1 µM | 1.71 µM | 3.28 µM | 1.74 µM | 3.26 µM | 2.04 µM | 4.73 µM | 2.97 µM | 20.1 µM | 3.73 µM | 16 µM | 2.33 µM | 6.3 µM | 3.65 µM | 16.2 µM | 5.14 µM | 24.7 µM | 6 µM | 19.4 µM |
| CCCCCCCCCCCCCC1=NCCN1CCO | 4.03 µM | 16.5 µM | 2.3 µM | 5.27 µM | 3 µM | 9 µM | 3.68 µM | 10.9 µM | 2.4 µM | 6.89 µM | 3.04 µM | 8.28 µM | 1.95 µM | 3.94 µM | 2.86 µM | 9.01 µM | 9.59 µM | 26.8 µM | 2.3 µM | 8.16 µM |
| c1cc2[nH]ncc2cc1-c1nc2ccc3[nH]ncc3c2c2c1CCCC2 | 1.98 µM | 9.79 µM | 0.455 µM | 10.6 µM | 0.563 µM | 11.5 µM | 0.523 µM | 10.8 µM | 0.736 µM | 11.2 µM | 2.67 µM | 11.6 µM | 1.53 µM | 5.4 µM | 0.509 µM | 2.15 µM | 2.35 µM | 11 µM | 0.998 µM | 4.36 µM |
| CCOC(=O)n1cc(C2=C(c3cn(C)c4ccccc34)COC2=O)c2ccccc21 | 0.167 µM | > 100 µM | 0.0515 µM | 16.8 µM | 0.0471 µM | > 100 µM | 0.0478 µM | > 100 µM | 0.032 µM | > 100 µM | 0.347 µM | > 70.5 µM | 0.119 µM | 0.584 µM | 0.5 µM | > 86.1 µM | 0.259 µM | > 63.2 µM | 0.0248 µM | 1.22 µM |
| Cc1ccccc1-n1ncc(C(=O)c2ccccc2)c1N | > 25 µM | > 25 µM | > 25 µM | > 25 µM | > 25 µM | > 25 µM | > 25 µM | > 25 µM | > 25 µM | > 25 µM | > 25 µM | > 25 µM | > 25 µM | > 25 µM | > 25 µM | > 25 µM | > 25 µM | > 25 µM | > 9.3 µM | > 25 µM |
| C=CC(=O)NCc1cccc(Nc2ncc(Br)c(NCCCNC(=O)C3CCC3)n2)c1 | 1.83 µM and 3.03 µM | 5.27 µM and 10.1 µM | 1.75 µM and 0.603 µM | 12.5 µM and 14.3 µM | 0.806 µM and 0.861 µM | 12.5 µM and > 25 µM | 1.86 µM and 1.19 µM | 10.2 µM and 5.91 µM | 1.88 µM and 0.537 µM | 12.5 µM and 4.77 µM | 0.567 µM and 0.463 µM | 11.6 µM and 1.8 µM | 0.369 µM and 0.475 µM | 2.03 µM and 2.72 µM | 2.17 µM and 2.93 µM | 5.57 µM and 7.08 µM | 1.07 µM and 1.38 µM | 12.5 µM and 18.3 µM | 0.113 µM and 0.0839 µM | 0.637 µM and 1.02 µM |
| Nc1nc(OCc2cc(Br)cs2)c2[nH]cnc2n1 | 36.2 µM | > 100 µM | 19.9 µM | > 100 µM | 23.2 µM | > 100 µM | 26.7 µM | > 100 µM | 25.7 µM | > 100 µM | 27.8 µM | > 100 µM | 18.2 µM | 62.6 µM | 28.8 µM | 81.3 µM | 37.6 µM | > 100 µM | 15.7 µM | 90.2 µM |
| Cc1ccc(C(SCC(N)C(=O)O)(c2ccc(C)cc2)c2ccc(C)cc2)cc1 (stereo not given) | 2.5 µM | 11 µM | 0.829 µM | 13 µM | 2.26 µM | 12.4 µM | 0.729 µM | 2.37 µM | 0.895 µM | 18.4 µM | 1.93 µM | 7.77 µM | 1.22 µM | 7.5 µM | 2.72 µM | 20.5 µM | 4.97 µM | 30.2 µM | 6.69 µM | > 38.2 µM |
| O=[N+]([O-])c1ccccc1N/N=C\c1c[nH]c2ccccc12 | 10.9 µM | > 100 µM | 13.7 µM | > 100 µM | 6.1 µM | > 100 µM | 34.7 µM | > 100 µM | 0.85 µM | > 100 µM | 2.98 µM | 20.5 µM | 12.4 µM | 31.2 µM | 26.4 µM | > 100 µM | 24.9 µM | > 100 µM | 4.2 µM | 29.8 µM |
| CN(C)c1ccc(N=C2C=CC(=[N+](C)C)C=C2)cc1 | 9.03 µM | 65.8 µM | 4.04 µM | 17.8 µM | 3.91 µM | 15 µM | 17.7 µM | 81.4 µM | 4.03 µM | 17.6 µM | 6.41 µM | > 100 µM | 11.7 µM | 45.8 µM | 3.05 µM | 13 µM | 6.45 µM | > 100 µM | 5.86 µM | 21.2 µM |
| CC(C)(C)C(=O)OCOP(=O)(OCOC(=O)C(C)(C)C)C1CC(O)N(O)C1=O (stereo not given) | 4.04 µM | 49 µM | 3.72 µM | > 100 µM | 4.79 µM | > 100 µM | 8.44 µM | > 100 µM | 3.32 µM | > 100 µM | 3.65 µM | 40.9 µM | 3.18 µM | 22.1 µM | 5.14 µM | 92.1 µM | 2.37 µM | 7.33 µM | 19.2 µM | > 100 µM |
| CS(=O)(=O)Nc1ccc(-c2cc(-c3ccccc3)cc(C(N)=O)c2N)cc1 | > 25 µM | > 25 µM | > 25 µM | > 25 µM | 20.5 µM | > 25 µM | > 25 µM | > 25 µM | > 20.5 µM | > 25 µM | > 25 µM | > 25 µM | > 25 µM | > 25 µM | > 25 µM | > 25 µM | > 25 µM | > 25 µM | 8.89 µM | > 25 µM |
